Experimental data published in patent US6087390A, “Derivatives of antifungal substance BE-31405 and process for producing the same” (Banyu Pharmaceutical Co., Ltd., priority 1997, dated 2000).
In brackets after ≈: the same amount, converted by molar mass.

test system: Candida albicans IFO1385; test: Antifungal activity: MIC against Candida albicans IFO1385 on yeast nitrogen base agar; type: cell-based; conditions: 48 h; 2 days of incubation at 37° C., yeast nitrogen base agar with 1% glucose and 0.25% dipotassium hydrogen phosphate; single use; read-out: MIC
Experimental: ^b MICs were determined against Candida albicans IFO1385 after 2 days
of incubation of the test strain at 37° C. on yeastnitrogen base
agar (containing 1% glucose and 0.25% dipotassium hydrogen phosphate,

Row | SMILES | MIC [µg/mL]
1 | CCCCCCC(=O)OC1C2OC3(OCC45CC6C(C)CCC6C6(C=O)CC4C=C(C(C)C)C65C(=O)O)OC2OC1C3O (stereo not drawn) [Compound 14, 8a-[[[6-(n-heptanoyloxy)tetrahydro-7-hydroxy-2,5-methanofuro[2,3-d]-1,3-dioxol-2-yl]oxy]methyl]-4-formyl-4,4a,5,6,7,7a,8,8a-octahydro-7-methyl-3-(1-methylethyl)-1,4-methano-s-indacene-3a(1H)-carboxylic acid] | 1.56 (≈ 2.59 µM)
2 | CCCCOC1C2OC3(OCC45CC6C(C)CCC6C6(C=O)CC4C=C(C(C)C)C65C(=O)O)OC2OC1C3O (stereo not drawn) [Compound 38, 8a-[[[6-(butoxy)tetrahydro-7-hydroxy-2,5-methanofuro[2,3-d]-1,3-dioxol-2-yl]oxy]methyl]-4-formyl-4,4a,5,6,7,7a,8,8a-octahydro-7-methyl-3-(1-methylethyl)-1,4-methano-s-indacene-3a(1H)-carboxylic acid] | 3.13 (≈ 5.73 µM)
3 | CCCCCCCCCCOC1C2OC3(OCC45CC6C(C)CCC6C6(C=O)CC4C=C(C(C)C)C65C(=O)O)OC2OC1C3O (stereo not drawn) [Compound 50, 8a-[[[6-(decyloxy)tetrahydro-7-hydroxy-2,5-methanofuro[2,3-d]-1,3-dioxol-2-yl]oxy]methyl]-4-formyl-4,4a,5,6,7,7a,8,8a-octahydro-7-methyl-3-(1-methylethyl)-1,4-methano-s-indacene-3a(1H)-carboxylic acid] | 3.13 (≈ 4.96 µM)
4 | CCCCCC(=O)OC1C2OC3(OCC45CC6C(C)CCC6C6(C=O)CC4C=C(C(C)C)C65C(=O)O)OC2OC1C3O (stereo not drawn) [Compound 13, 8a-[[[6-(n-hexanoyloxy)tetrahydro-7-hydroxy-2,5-methanofuro[2,3-d]-1,3-dioxol-2-yl]oxy]methyl]-4-formyl-4,4a,5,6,7,7a,8,8a-octahydro-7-methyl-3-(1-methylethyl)-1,4-methano-s-indacene-3a(1H)-carboxylic acid] | 3.13 (≈ 5.32 µM)

The remaining lines, values ahead:

Row | MIC [µg/mL] | SMILES
5 | 1.56 (≈ 2.78 µM) | CCCCCOC1C2OC3(OCC45CC6C(C)CCC6C6(C=O)CC4C=C(C(C)C)C65C(=O)O)OC2OC1C3O (stereo not drawn) [Compound 41, 8a-[[[6-(pentyloxy)tetrahydro-7-hydroxy-2,5-methanofuro[2,3-d]-1,3-dioxol-2-yl]oxy]methyl]-4-formyl-4,4a,5,6,7,7a,8,8a-octahydro-7-methyl-3-(1-methylethyl)-1,4-methano-s-indacene-3a(1H)-carboxylic acid]
6 | 3.13 (≈ 5.58 µM) | CC(C)CCOC1C2OC3(OCC45CC6C(C)CCC6C6(C=O)CC4C=C(C(C)C)C65C(=O)O)OC2OC1C3O (stereo not drawn) [Compound 44, 8a-[[[6-(isopentyloxy)tetrahydro-7-hydroxy-2,5-methanofuro[2,3-d]-1,3-dioxol-2-yl]oxy]methyl]-4-formyl-4,4a,5,6,7,7a,8,8a-octahydro-7-methyl-3-(1-methylethyl)-1,4-methano-s-indacene-3a(1H)-carboxylic acid]
7 | 1.56 (≈ 2.71 µM) | CCCCCCOC1C2OC3(OCC45CC6C(C)CCC6C6(C=O)CC4C=C(C(C)C)C65C(=O)O)OC2OC1C3O (stereo not drawn) [Compound 47, 8a-[[[6-(hexyloxy)tetrahydro-7-hydroxy-2,5-methanofuro[2,3-d]-1,3-dioxol-2-yl]oxy]methyl]-4-formyl-4,4a,5,6,7,7a,8,8a-octahydro-7-methyl-3-(1-methylethyl)-1,4-methano-s-indacene-3a(1H)-carboxylic acid]
8 | 6.25 (≈ 10.9 µM) | CCCCC(=O)OC1C2OC3(OCC45CC6C(C)CCC6C6(C=O)CC4C=C(C(C)C)C65C(=O)O)OC2OC1C3O (stereo not drawn) [Compound 10, 8a-[[[6-(n-valeryloxy)tetrahydro-7-hydroxy-2,5-methanofuro[2,3-d]-1,3-dioxol-2-yl]oxy]methyl]-4-formyl-4,4a,5,6,7,7a,8,8a-octahydro-7-methyl-3-(1-methylethyl)-1,4-methano-s-indacene-3a(1H)-carboxylic acid]

same assay, conditions: 2 days of incubation at 37° C., yeast nitrogen base agar with 1% glucose and 0.25% dipotassium hydrogen phosphate; single use

Row | SMILES | MIC [µg/mL]
9 | COC1C2OC3(OCC45CC6C(C)CCC6C6(C=O)CC4C=C(C(C)C)C65C(=O)O)OC2OC1C3O (stereo not drawn) [SCH57404 (xylarin), reference compound] | 100 (≈ 198 µM)
10 | CC(=O)O[C@@H]1[C@@H]2O[C@@]3(OC[C@@]45C[C@@H]6[C@H](C)CC[C@H]6[C@@]6(C=O)C[C@@H]4C=C(C(C)C)[C@@]56C(=O)O)O[C@@H]2O[C@@H]1[C@@H]3O [BE-31405] | 50 (≈ 93.9 µM)

test system: a certain kind of fungus; test: not given; conditions: in vitro, acidic conditions

Row | SMILES | growth inhibitory (antifungal) activity under acidic conditions
11 | CC(=O)O[C@@H]1[C@@H]2O[C@@]3(OC[C@@]45C[C@@H]6[C@H](C)CC[C@H]6[C@@]6(C=O)C[C@@H]4C=C(C(C)C)[C@@]56C(=O)O)O[C@@H]2O[C@@H]1[C@@H]3O [BE-31405] | shows growth inhibitory activity against a certain kind of fungus in vitro especially under acidic conditions

same assay, conditions: neutral conditions

Row | SMILES | antifungal activity under neutral conditions
12 | CC(=O)O[C@@H]1[C@@H]2O[C@@]3(OC[C@@]45C[C@@H]6[C@H](C)CC[C@H]6[C@@]6(C=O)C[C@@H]4C=C(C(C)C)[C@@]56C(=O)O)O[C@@H]2O[C@@H]1[C@@H]3O [BE-31405] | the activity remarkably lowers under neutral conditions
